Data set [1] deals with Peritoneal macrophage. Briefly: Antiinflammatory activity in mouse primary peritoneal macrophages assessed as inhibition of LPS-induced TNF-alpha production at 10 uM preincubated for 30 mins followed by LPS addition and measured after 24 hrs by ELISA relative to control. It is filed as functional. (In an ELISA, binding on a coated surface is turned into a signal by an enzyme label.)

The subject of data set [2] is Peritoneal macrophage. Kind of data set: Antiinflammatory activity in mouse primary peritoneal macrophages assessed as inhibition of LPS-induced IL-6 production at 10 uM preincubated for 30 mins followed by LPS addition and measured after 24 hrs by ELISA relative to control. The format is functional.
The subject of data set [3] is Peritoneal macrophage. Briefly: Cytotoxicity against mouse primary peritoneal macrophages assessed as reduction in cell viability at 10 uM after 24 hrs by MTT assay. It is filed as cell-based. Background: Tetrazolium dyes change colour on reduction, which living cells bring about.
The test system of data set [4] is Peritoneal macrophage. Kind of data set: Antiinflammatory activity in mouse primary peritoneal macrophages assessed as inhibition of LPS-induced TNF-alpha production preincubated for 30 mins followed by LPS addition and measured after 24 hrs by ELISA. It is filed as functional, cell-based.
Data set [5] relates to Peritoneal macrophage. Briefly: Antiinflammatory activity in mouse primary peritoneal macrophages assessed as inhibition of LPS-induced IL-6 production preincubated for 30 mins followed by LPS addition and measured after 24 hrs by ELISA. It is filed as functional, cell-based.

SMILES strings stand for the structures. Active and inactive are the calls of the source. No cut-off for these calls is given here.

By inhibition is commonly meant the share of the control response that was lost under treatment. In general, IC50 refers to the concentration at which inhibition is half-maximal.

For `CCCCn1c(S(=O)(=O)c2ccc(C)cc2)cc2ccccc21`, the inhibition result in data set [1] and in data set [2] was “Active” throughout. For the same compound, the Activity result in data set [3] is given as “Non-Toxic”.
`Cc1ccc(S(=O)(=O)c2cc3c(Cl)cccc3[nH]2)cc1`: the inhibition result in data set [1] and in data set [2] was “Active” each time. For the same compound, the Activity entry in data set [3] is “Non-Toxic”.
Take `Cc1ccc(S(=O)(=O)c2[nH]c3ccccc3c2I)cc1`: the inhibition result in data set [1] and in data set [2] was “Active” throughout. Moreover, in data set [3], the Activity entry is “Non-Toxic”.
As for `Cn1c(S(=O)(=O)c2ccc(Cl)cc2)cc2ccccc21`, the inhibition result in data set [1] and in data set [2] was “Active” in each case. For the same compound, the Activity result in data set [3] was “Non-Toxic”.
On to `Cc1ccc(S(=O)(=O)c2cc3ccc(F)cc3n2C)cc1`, for which the inhibition result in data set [1] and in data set [2] was “Active” in each case. Besides, the Activity entry in data set [3] is “Non-Toxic”.
Regarding `Cc1ccc(S(=O)(=O)c2cc3ccccc3n2C)cc1`, the results for the inhibition at 10 µM in data set [1] and in data set [2] were 82% and 88%, respectively. Further, the Activity entry in data set [3] is on record as “Non-Toxic”. Also, the IC50 in data set [4] was found to be 11.9 µM; in data set [5], 2.39 µM. Besides, the inhibition entry in data set [4] and in data set [5] was “Dose-dependent effect” each time.
As to `Cc1ccc2cc(S(=O)(=O)c3cccc4ccccc34)[nH]c2c1`, the inhibition result in data set [1] and in data set [2] was “Active” each time. Moreover, in data set [3], the Activity entry is “Non-Toxic”.
On to `CCn1c(-c2ccccc2)c(S(=O)(=O)c2ccc(C)cc2)c2ccccc21`, for which the inhibition entry in data set [1] and in data set [2] was “Active” throughout. For the same compound, in data set [3], the Activity result is “Non-Toxic”.
Regarding `Cc1ccc(S(=O)(=O)c2c(C)c3ccccc3n2C)cc1`, the inhibition entry in data set [1] and in data set [2] was “Active” in each case. Further, in data set [3], the Activity result is recorded as “Non-Toxic”.
On to `Cn1c(S(=O)(=O)c2ccc(-c3ccccc3)cc2)cc2ccccc21`, for which the inhibition entry in data set [1] and in data set [2] was “Active” throughout. Also, the Activity result in data set [3] is given as “Non-Toxic”.
With `Cc1ccccc1S(=O)(=O)c1cc2ccccc2n1C`, the inhibition result in data set [1] and in data set [2] was “Active” in each case. In addition, in data set [3], the Activity result is recorded as “Non-Toxic”.
Take `COc1ccc(S(=O)(=O)c2cc3ccccc3n2C)cc1`: the inhibition result in data set [1] and in data set [2] was “Active” in each case. In data set [3], the Activity result is recorded as “Non-Toxic”. The figures for the IC50 in data set [4] and in data set [5] were 59.4 µM and 1.12 µM, respectively.
Consider `Cn1c(S(=O)(=O)c2ccc(F)cc2)cc2ccccc21`, for which the inhibition result in data set [1] and in data set [2] was “Active” each time. Besides, the Activity entry in data set [3] is recorded as “Non-Toxic”.
For `Cc1ccc(S(=O)(=O)c2cc3c(Cl)cccc3n2C)cc1`, the inhibition result in data set [1] and in data set [2] was “Active” throughout. Further, in data set [3], the Activity entry was “Non-Toxic”.
Consider `Cn1c(S(=O)(=O)c2cccs2)cc2ccccc21`, for which the inhibition result in data set [1] and in data set [2] was “Active” each time. Also, in data set [3], the Activity entry was “Non-Toxic”.
Turning to `COc1ccc2c(c1)c(CC(=O)O)c(C)n2C(=O)c1ccc(Cl)cc1` [INDOMETHACIN], the inhibition entry in data set [1] and in data set [2] was “Active” each time. Also, in data set [3], the Activity result is “Non-Toxic”.
On to `COc1ccc2c(c1)cc(S(=O)(=O)c1ccc(C)cc1)n2C`, for which the inhibition entry in data set [1] and in data set [2] was “Active” throughout. The Activity result in data set [3] is “Non-Toxic”.
For the compound `Cc1ccc(S(=O)(=O)c2cc3cc([N+](=O)[O-])ccc3n2C)cc1`, the inhibition result in data set [1] and in data set [2] was “Active” throughout. In addition, the Activity entry in data set [3] is on record as “Non-Toxic”.
In the case of `COc1ccc(S(=O)(=O)c2[nH]c3cc(C)ccc3c2I)cc1`, the inhibition entry in data set [1] and in data set [2] was “Active” throughout. Besides, the Activity entry in data set [3] is listed as “Non-Toxic”.
Take `COc1ccc2c(c1)cc(S(=O)(=O)c1ccc(C(F)(F)F)cc1)n2C`: the inhibition entry in data set [1] and in data set [2] was “Active” throughout. In addition, the Activity result in data set [3] is listed as “Non-Toxic”.
For the compound `Cc1ccc(S(=O)(=O)c2[nH]c3cc(C)ccc3c2I)cc1`, the inhibition entry in data set [1] and in data set [2] was “Active” in each case. Further, the Activity result in data set [3] was “Non-Toxic”.
For `Cn1c(S(=O)(=O)c2cccc3ccccc23)cc2ccccc21`, the inhibition result in data set [1] and in data set [2] was “Active” in each case. For the same compound, the Activity result in data set [3] is recorded as “Non-Toxic”.
For the compound `Cc1ccc(S(=O)(=O)c2cc3cc(Br)ccc3n2C)cc1`, the inhibition entry in data set [1] and in data set [2] was “Active” in each case. For the same compound, the Activity result in data set [3] is “Non-Toxic”.
As for `Cc1c(S(=O)(=O)c2ccc(C(F)(F)F)cc2)n(C)c2ccccc12`, the inhibition entry in data set [1] and in data set [2] was “Active” throughout. The Activity entry in data set [3] is reported as “Non-Toxic”.
As to `Cn1c(S(C)(=O)=O)cc2ccccc21`, the inhibition entry in data set [1] and in data set [2] was “Active” in each case. Further, the Activity entry in data set [3] is “Non-Toxic”.
On to `COc1ccc2c(c1)cc(S(=O)(=O)c1ccc(C(C)(C)C)cc1)n2C`, for which the inhibition entry in data set [1] and in data set [2] was “Active” throughout. The Activity result in data set [3] is reported as “Non-Toxic”.
As for `Cc1ccc(S(=O)(=O)c2c(C)n(C)c3ccccc23)cc1`, the inhibition entry in data set [1] and in data set [2] was “Active” throughout. For the same compound, the Activity result in data set [3] was “Non-Toxic”.
In the case of `Cc1c(S(=O)(=O)c2ccc(C(C)(C)C)cc2)n(C)c2ccccc12`, the inhibition result in data set [1] and in data set [2] was “Active” throughout. Further, the Activity entry in data set [3] is “Non-Toxic”.
Take `Cn1c(S(=O)(=O)c2ccccc2)cc2ccccc21`: the inhibition result in data set [1] and in data set [2] was “Active” each time. Moreover, the Activity result in data set [3] is “Non-Toxic”.
`Cc1ccc(S(=O)(=O)c2cc3ccc(C)cc3n2C)cc1`: the inhibition entry in data set [1] and in data set [2] was “Active” each time. For the same compound, the Activity result in data set [3] is on record as “Non-Toxic”.

The record behind these values is ChEMBL document CHEMBL4382208, “Design, synthesis and biological evaluation of novel 2-sulfonylindoles as potential anti-inflammatory therapeutic agents for treatment of acute lung injury” (Eur J Med Chem, 2018).
